{
  "source": "patent US20250361217A1",
  "about": "“FATTY ACID COMPOUNDS” (University of Pittsburgh - Of the Commonwealth System of …, priority 2022, published 2025)",
  "test_system": "HFD model in C57BL/6J mice",
  "assay": "Glucose tolerance test (GTT) in HFD NAFLD mouse model",
  "type": "in vivo",
  "from_the_text": "Male C57BL/6J mice were purchased from Jackson Laboratory (Bar Harbor, ME, USA). Mice were acclimated for a week before being randomized to receive either a low-fat diet (LFD) or a high-fat diet (HFD) purchased from Research Diets (New Brunswick, NJ, USA). Obesity was induced by the HFD (D12492, with 60% of the adjusted calories derived from fat) for 16 weeks beginning at age of 8 weeks. Age-matched controls were maintained on a LFD (D12450J, matching the sucrose level of D12492). While maintaining the diet, mice under HFD were divided into 4 groups (n=8 per group) and were treated every 2 days by oral gavage for 7 weeks with 100 μl of 11D3 (50 mg/kg), 11U3 (50 mg/kg), or 11U3-2M (50 mg/kg) formulated in a solution of 2:1 of polyethylene glycol (Fisher Scientific, PEG400 #p167-1) and saline, containing 1.5% of octanoic acid (TCI, #00027). Control groups received 100 μl of PEG400/saline/octanoic acid as the vehicle (Veh). LFD mice were divided into 2 groups (n=8 per group) and treated with veh or 11D3 (50 mg/kg) to detect any effect of natural FuFA in LFD. Mice were grouped to start at the same weight mean before starting the treatment. During and before gavage treatment, mice were fed ad libitum and given free access to water. Food intake, water consumption, and mouse weight were monitored every week. At 20 weeks (4 weeks of treatment), a glucose tolerance test (GTT) was performed on all cohorts. After 2 weeks of recovery (22 weeks), a whole-body composition was performed using EchoMRI™-100H. At the end of the 23 weeks study, mice were euthanized with isoflurane followed by laparotomy. The blood was collected, and mice were perfused using 0.9% NaCl. Organs were harvested and snap-frozen in liquid nitrogen gas and stored at −80° C. for further analysis. The Cellerusher (Cell Crusher, Schull, Ireland) tissue pulverizer was used to reduce frozen tissues to a fine, easily recoverable powder using dry ice. For immunohistochemistry, the same liver lobe for every mouse was fixed in Formalin 10% (Fisher Chemical, #SF98-4) for 48h, followed by 75% ethanol baths before paraffin embedding.\nGTT was performed on mice fasted for 5h. Mice were injected intraperitoneally with filter-sterilized 1.5 g/kg glucose in 0.9% NaCl. Blood glucose levels were measured using a hand-held glucometer (Accu-Chek Aviva, Roche Diagnostics, Indianapolis, IN, USA) at 0, 20, 40, 60, 90, and 120 min.",
  "data": [
    {"compound": "CCCc1ccc(CCCCCCCCCC(C)(C)C(=O)O)o1", "note": "[11U3-2M, 2,2-Dimethyl-11-(5-propylfuran-2-yl)undecanoic acid]", "values": [
      {"measurement": "blood glucose clearance measured by GTT compared to veh", "setting": "50 mg/kg gavage every 2 days, after 4 weeks of treatment", "value": "significantly improved"},
      {"measurement": "decrease in glucose area under the curve from 0 to 120 min vs veh", "setting": "50 mg/kg, 4 weeks", "value": 24, "unit": "%"},
      {"measurement": "fasting blood glucose", "setting": "50 mg/kg, 4 weeks", "value": "trend in decreased glucose"},
      {"measurement": "less glucose in GTT vs veh", "setting": "20 min time point, 50 mg/kg, 4 weeks", "value": 18, "unit": "%"},
      {"measurement": "less glucose in GTT vs veh", "setting": "40 min time point, 50 mg/kg, 4 weeks", "value": 26, "unit": "%"},
      {"measurement": "less glucose in GTT vs veh", "setting": "60 min time point, 50 mg/kg, 4 weeks", "value": 22, "unit": "%"}
    ]}
  ]
}
